Laboratory results as given in patent US20050182140A1, “Antimicrobial compositions” (Microban Products Company, priority 2003, published 2005).

What was measured:
Assay type in all cases: cell-based
K. pneumoniae [1] = assay: AATCC Test Method 147, treated cotton samples (Examples 2 and 4); details: Example 2; agent at 900 ppm; cotton laundered 50 times
Description: (§1) The efficacy of Emulsion A in cotton sample material was tested, alone and in combination with other agents. The AATCC Test Method 147, which is a known bacterial test method for textiles, was followed. The sample size of the cotton was a 25 mm×75 mm rectangle. The growth medium was Nutrient Agar. Prior to treatment, the cotton was steam sterilized at 121° C. The samples were incubated at 37° C.±2° C. for 18 to 24 hours. The samples were each laundered 50 times prior to doing the micro testing unless indicated to the contrary. NZ means that no zone of inhibition surrounded the sample. NI means that there was no inhibition of growth under the sample (if observable). The zone of inhibition was reported in millimeters.
(§2) The efficacy of Emulsion A in cotton sample material was tested, alone and in combination with other agents. The AATCC Test Method 147, which is a known test method, was followed. The sample size of the cotton was 25 mm×75 mm rectangle. The growth medium was Nutrient Agar. Prior to treatment, the cotton was steam sterilized at 121° C. The samples were incubated at 37° C.±2° C. for 18 to 24 hours. The samples were each laundered 50 times unless indicated to the contrary. NZ means that no zone of inhibition surrounded the sample. NI means there was no inhibition of growth under the sample (if observable). The zone of inhibition was reported in millimeters.

S. aureus 6538 [2] = assay: as above; details: Example 2; agent at 900 ppm; cotton laundered 50 times
Description: as §1, §2

K. pneumoniae [3] = assay: Kirby Bauer Test Method, treated cotton samples (Example 3); details: agent at 800 ppm with R10800 at 0.67% and USV at 0.33%, cotton laundered 50 times
Description: (§3) The efficacy of Emulsion A in cotton sample material was tested, alone and in combination with other agents. The Kirby Bauer Test Method, which is a known bacterial test method, was followed. The sample size of the cotton was 38.1 mm×38.1 mm (1.5 inches×1.5 inches) square. The growth medium was Mueller-Hinton Agar. Prior to treatment, the cotton was steam sterilized at 121° C. The samples were pre-wet with sterile deionized water. The samples were incubated at 37° C.±2° C. for 18 to 24 hours. The samples were each laundered 50 times unless indicated to the contrary. NZ means that no zone of inhibition surrounded the sample. NI means that there was no inhibition of growth under the sample (if observable). The zone of inhibition was reported in millimeters.
(§4) Note that the percentages of R10800 and USV represent target loading levels on the cotton samples.

S. aureus 6538 [4] = assay: as above; details: agent at 800 ppm with R10800 at 0.67% and USV at 0.33%, cotton laundered 50 times
Description: as §3, §4

Zinc pyrithione [Zinc pyrithione (FPS dispersion)]
Size of Zone (K. pneumoniae [1]): 0 mm
Zone Results (K. pneumoniae [1]): NZ/NI
Size of Zone (S. aureus 6538 [2]): 2 mm
Size of Zone (K. pneumoniae [3]): 0 mm
Zone Results (K. pneumoniae [3]): NZ/NI
Size of Zone (S. aureus 6538 [4]): 0 mm
Zone Results (S. aureus 6538 [4]): NZ/I

O=C(Nc1ccc(Cl)cc1)Nc1ccc(Cl)c(Cl)c1 [Triclocarban]
Size of Zone (K. pneumoniae [3]): 0 mm
Zone Results (K. pneumoniae [3]): NZ/NI
Size of Zone (S. aureus 6538 [4]): 0 mm
Zone Results (S. aureus 6538 [4]): NZ/NI

Oc1ccccc1-c1ccccc1 [Ortho-phenyl phenol]
Size of Zone (K. pneumoniae [3]): 0 mm
Zone Results (K. pneumoniae [3]): NZ/NI
Size of Zone (S. aureus 6538 [4]): 0 mm
Zone Results (S. aureus 6538 [4]): NZ/NI
